Consider 15 compounds from patent US11046682B2, “Fused heterocyclic derivatives, their preparation methods thereof and medical uses thereof” (Beijing Innocare Pharma Tech Co., Ltd., priority 2016, dated 2021).

Structures are written as SMILES.

For assay [1], the target named is full-length human recombinant IDO1 protein (Homo sapiens (Human), UniProt P14902). Put plainly: IDO enzyme activity inhibition testing (Ehrlich method). The note with it: OD490, 10 concentration points. It is filed as biochemical. The procedure: IDO Enzyme Activity Inhibition Testing
Sequence of full-length human recombinant IDO1 protein (P14902 whole entry): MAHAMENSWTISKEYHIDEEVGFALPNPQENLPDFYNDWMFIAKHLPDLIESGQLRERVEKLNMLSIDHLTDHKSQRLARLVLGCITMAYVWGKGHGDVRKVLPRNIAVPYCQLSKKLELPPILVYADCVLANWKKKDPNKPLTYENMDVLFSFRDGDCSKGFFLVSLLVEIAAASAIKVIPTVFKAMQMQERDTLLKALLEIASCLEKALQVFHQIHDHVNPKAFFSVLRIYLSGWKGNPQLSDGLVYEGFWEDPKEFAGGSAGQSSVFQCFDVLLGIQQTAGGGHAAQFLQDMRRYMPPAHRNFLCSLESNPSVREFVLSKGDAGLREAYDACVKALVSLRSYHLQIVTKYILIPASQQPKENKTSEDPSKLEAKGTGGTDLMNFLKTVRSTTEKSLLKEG
The effects of the compounds of the invention on the activity of indoleamine 2,3-dioxygenase (IDO) were evaluated by the Ehrlich method.
The experimental principle is summarized as follows: IDO1 catalyzes oxidation of tryptophan to form N-formyl kynurenine, N-formyl kynurenine is subsequently hydrolyzed by trichloroacetic acid to form kynurenine, and kynurenine further reacts with the Ehrlich reagent to make the solution yellow. The absorbance at 490 nm (OD490) is directly proportional to the activity of IDO1.
The experimental methods are summarized as follows:
The reaction buffer was 50 mM 2-(N-morpholine)ethanesulfonic acid-hydrate (Sigma, Cat. No. 69889); the full-length human recombinant IDO1 protein was purchased from the Tsinghua Protein Research Technology Center and diluted to a 33.6 ng/μL enzyme solution with the reaction buffer; the substrate solution was prepared with the reaction buffer containing 20 mM vitamin C (Sigma, Cat. No. A5960), 150 μM L-tryptophan (Sigma, Cat. No. T0254), 2250 UI/mL catalase (Sigma, Cat. No. C30), and 10 μM methylene blue (Sigma, Cat. No. 28514); the reaction termination solution was 30% (mass/volume) trichloroacetic acid (Sigma, Cat. No. T9159) aqueous solution; the Ehrlich reagent was 2% p-dimethylaminobenzaldehyde (Sigma, Cat. No. 156477) acetic acid (Macklin, Cat. No. A801295) solution.
A compound was dissolved in DMSO (Sigma, Cat. No. D5879) and diluted to 1 mM, then serially diluted 3-fold with DMSO to a minimum concentration of 50.8 nM, and each concentration was further diluted 25-fold with the reaction buffer. If a compound's IC50 value was very low, the initial concentration of the compound was decreased.
A 10-μL compound solution and a 10-μL enzyme solution were added to a 96-well plate (Sigma, Cat. No. CLS3695), mixed well and incubated at room temperature. After 15 min, a 20-μL substrate solution was added and incubated at 60° C. after mixing for 30 min. The reaction plate was equilibrated to room temperature and 60 μL of the Ehrlich reagent was added. After incubation for 15 min, OD490 of each well was measured.
In this experiment, OD490 without enzyme was referred as OD490100% inhibition, and OD490 with enzyme added but without compound was referred as OD4900% inhibition.
(§1) Where Y is the percentage of inhibition, Bottom is the bottom platform value of the S-curve, Top is the top platform value of the S-curve, X is the logarithm of the concentration of the test compound, and slope factor is the slope coefficient of the curve.

The target of assay [2] is indoleamine 2,3-dioxygenase (IDO) in Hela cells (Homo sapiens (Human), UniProt P14902). Kind of assay: IDO intracellular activity inhibition testing in Hela cells induced by IFN-γ (Ehrlich method). It is filed as cell-based. Conditions: 24 hours, OD490, 8 concentration points. As to the method: IDO Intracellular Activity Inhibition Testing
Sequence of indoleamine 2,3-dioxygenase (IDO) in Hela cells (P14902 whole entry): as above
The effects of the compounds of the invention on the activity of indoleamine 2,3-dioxygenase (IDO) in Hela cells induced by IFN-γ were evaluated by the Ehrlich method.
The experimental principle is summarized as follows: IDO expression is low in Hela cells under no induction, but a certain concentration of IFN-γ can induces Hela cells to express IDO which catalyzes the conversion of tryptophan to N-formyl kynurenine, which in turn is hydrolyzed by trichloroacetic acid to give kynurenine. Kynurenine then reacts with the Ehrlich reagent to give a color enabling detection of the IDO activity. The absorbance at 490 nm (OD490) is directly proportional to the IDO activity.
A compound was dissolved in DMSO (Sigma, Cat. No. D5879) and diluted to 5 mM, then serially diluted 3-fold with DMSO to a minimum concentration of 2.29 μM, and each concentration point was diluted 50-fold with FBS-free DMEM medium (ThermoFisher, Cat. No. 11995073). If a compound's IC50 value is very low, the initial concentration of the compound was lowered.
Hela cells (ATCC, Cat. No. CCL-2) were cultured in DMEM complete medium containing 10% FBS (GBICO, Cat. No. 10099-141) and 100 U/mL streptomycin mixture (ThermoFisher, Cat. No. 15140122). When covering the culture vessel 80-90%, the cells were digested with 0.25% trypsin (containing EDTA) (ThermoFisher, Cat. No. 25200056) and planted in 96-well plates (Corning, Cat. No. 3599), 20000 cells per well (80 μL of DMEM medium). The plates were then incubated in a 37° C., 5% CO2 incubator overnight (18-20 hours).
After overnight, 10 μL of DMEM-diluted compound and 10 μL of 500 ng/mL of INF-γ were added to each well, and gently mixed and the 96-well plates were placed in a 37° C., 5% CO2 incubator for further culturing. After 24 hours, they were removed and centrifuged at room temperature 2000×g for 5 min, and then the supernatants were transferred to reaction plates (Sigma, Cat. No. CLS3695). One-twentieth of trichloroacetic acid (Sigma, Cat. No. T9159) was added and incubated at 60° C. After 30 min, the reaction plates were centrifuged at room temperature 2000×g for 5 min. The supernatants were transferred to clean reaction plates, an equal volume of the Ehrlich reagent was added, mixed, and incubated at room temperature. After 15 min, OD490 of each well was measured.
In this experiment, OD490 without IFN-γ but with DMEM medium replacement was referred as OD490100% inhibition. OD490 with IFN-γ and 0.2% DMSO was referred as OD4900% inhibition. The percentage of inhibition on the IDO1 activity in Hela cells by a compound was calculated using the following formula: Inhibition %=100−100*(OD490compound−OD490100% inhibition)/(OD4900% inhibition−OD490100% inhibition)
as §1

The target in assay [3] is plasma IDO1 (Mus musculus (Mouse), UniProt P28776). The note with it: nude mice, single dose; at the level of IDO-deficient mice; cited from earlier work.
Sequence of plasma IDO1 (P28776 whole entry): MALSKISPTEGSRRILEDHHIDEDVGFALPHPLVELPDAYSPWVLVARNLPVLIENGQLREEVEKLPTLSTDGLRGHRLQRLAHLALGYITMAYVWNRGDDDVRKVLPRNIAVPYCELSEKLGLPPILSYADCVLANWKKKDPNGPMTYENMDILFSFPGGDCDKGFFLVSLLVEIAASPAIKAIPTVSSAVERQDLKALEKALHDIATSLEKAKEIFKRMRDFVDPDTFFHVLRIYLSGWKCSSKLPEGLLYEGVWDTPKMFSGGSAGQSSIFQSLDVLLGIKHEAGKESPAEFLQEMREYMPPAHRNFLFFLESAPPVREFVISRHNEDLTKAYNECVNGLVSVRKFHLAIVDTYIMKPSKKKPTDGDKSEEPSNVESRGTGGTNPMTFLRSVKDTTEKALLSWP
The test system of assay [4] is CT26 tumors. The note with it: repeated doses; cited from earlier work.

As a reminder, the IC50 is the concentration that inhibits the measured activity by half. Turning to `N#Cc1ccc(NC(=O)Nc2c(-c3ccccc3)ccc3cncn23)cc1` [Compound 17, 1-(4-cyanophenyl)-3-(6-phenylimidazo[1,5-a]pyridin-5-yl)urea], the IC50 was less than 250 nM in assay [1] and less than 1000 nM in assay [2]. As to `N#Cc1ccc(NC(=O)Nc2c(Cl)ccc3cncn23)cc1` [Compound 19, 1-(6-chloroimidazo[1,5-a]pyridin-5-yl)-3-(4-cyanophenyl)urea], the values for the IC50 in assay [1] and in assay [2] were less than 250 nM and 1000 to 10000 nM, respectively. For the compound `N#Cc1ccc(NC(=O)Nc2c(-c3ccc(F)cc3)ccc3cncn23)cc1` [Compound 21, 1-(4-cyanophenyl)-3-(6-(4-fluorophenyl)imidazo[1,5-a]pyridin-5-yl)urea], the 50% inhibitory concentration (IC50) in assay [1] was 250 to 1500 nM; in assay [2] it was 1000 to 10000 nM. For `N#Cc1ccc(NC(=O)Nc2c(-c3cccc(F)c3)ccc3cncn23)cc1` [Compound 22, 1-(4-cyanophenyl)-3-(6-(3-fluorophenyl)imidazo[1,5-a]pyridin-5-yl)urea], the 50% inhibitory concentration (IC50) in assay [1] is less than 250 nM; in assay [2], less than 1000 nM. As to `N#Cc1ccc(NC(=O)Nc2c(-c3ccccc3F)ccc3cncn23)cc1` [Compound 23, 1-(4-cyanophenyl)-3-(6-(2-fluorophenyl)imidazo[1,5-a]pyridin-5-yl)urea], the IC50 in assay [1] is less than 250 nM; in assay [2] it was less than 1000 nM.

`N#Cc1ccc(NC(=O)Nc2c(C3=CCCC3)ccc3cncn23)cc1` [Compound 24, 1-(4-cyanophenyl)-3-(6-(cyclopent-1-en-1-yl)imidazo[1,5-a]pyridin-5-yl)urea]: the IC50 in assay [1] is less than 250 nM; in assay [2] it was 1000 to 10000 nM. The compound `N#CC1CCC(NC(=O)Nc2c(-c3ccccc3)ccc3cncn23)CC1` (stereo not shown) [Compound 36, 1-(4-cyanocyclohexyl)-3-(6-phenylimidazo[1,5-a]pyridin-5-yl)urea] displayed an IC50 in assay [2] of less than 1000 nM.

With `N#Cc1ccc(NC(=O)Cc2c(-c3ccccc3)ccc3cncn23)cc1` [Compound 37, N-(4-cyanophenyl)-2-(6-phenylimidazo[1,5-a]pyridin-5-yl)acetamide], the IC50 was less than 250 nM in assay [1] and less than 1000 nM in assay [2]. Consider `O=C(Cc1c(-c2ccccc2)ccc2cncn12)Nc1ccc(C(=O)NCCN2CCOCC2)cc1` [Compound 49, N-(2-morpholinoethyl)-4-(2-(6-phenylimidazo[1,5-a]pyridin-5-yl)acetamido)benzamide], for which the values for the IC50 in assay [1] and in assay [2] were less than 250 nM and less than 1000 nM, respectively.

On to `O=C(Cc1c(-c2ccccc2)ccc2cncn12)Nc1ccc(C(=O)NCCCN2CCOCC2)cc1` [Compound 50, N-(3-morpholinopropyl)-4-(2-(6-phenylimidazo[1,5-a]pyridin-5-yl)acetamido)benzamide], for which the values for the IC50 in assay [1] and in assay [2] were less than 250 nM and less than 1000 nM, respectively. Regarding `O=C(Cc1c(-c2ccccc2)ccc2cncn12)Nc1ccc(-c2cn[nH]c2)cc1` [Compound 51, N-(4-(1H-pyrazol-4-yl)phenyl)-2-(6-phenylimidazo[1,5-a]pyridin-5-yl)acetamide], the IC50 was less than 250 nM in assay [1] and less than 1000 nM in assay [2]. As to `O=C(Cc1c(-c2ccccc2)ccc2cncn12)Nc1cc[nH]n1` [Compound 53, 2-(6-phenylimidazo[1,5-a]pyridin-5-yl)-N-(1H-pyrazol-3-yl)acetamide], the IC50 in assay [1] is less than 250 nM; in assay [2], 1000 to 10000 nM.

Consider `O=C(Cc1c(-c2ccccc2)ccc2cncn12)Nc1cn[nH]c1` [Compound 54, 2-(6-phenylimidazo[1,5-a]pyridin-5-yl)-N-(1H-pyrazol-4-yl)acetamide], for which the IC50 in assay [1] lay within 250 to 1500 nM; in assay [2] it was 1000 to 10000 nM. With `N#Cc1ccc(NC(=O)C(O)c2c(-c3ccccc3)ccc3cncn23)cc1` (stereo not shown) [Compound 64, N-(4-cyanophenyl)-2-hydroxy-2-(6-phenylimidazo[1,5-a]pyridin-5-yl)acetamide], the IC50 in assay [2] is less than 1000 nM. `NS(=O)(=O)NCCNc1nonc1C(=NO)Nc1ccc(F)c(Br)c1` [INCB-024360]: the “activity of plasma IDO1” value in assay [3] was “effectively inhibit the activity of plasma IDO1”. The “expansion of CT26 tumors” value in assay [4] is given as “prevented the expansion of CT26 tumors”.
